{
  "source": "patent US20250066864A1",
  "about": "“METHODS FOR IDENTIFYING ADAR1 INHIBITORS, AND COMPOSITIONS AND METHODS OF USE IN TREATING CANCER” (The Wistar Institute of Anatomy and Biology, priority 2021, published 2025)",
  "key": {"ADAR1p110": {"biological_target": "T1, ADAR1p110 (Homo sapiens, UniProt P55265)", "T1 construct": "HAT (N); FLAG (alternative preparation, not on the same molecule as HAT) (N); made in house; host or cells: Sf9 insect cells, baculovirus", "T1 sequence (P55265 1-931 isoform P55265-5)": "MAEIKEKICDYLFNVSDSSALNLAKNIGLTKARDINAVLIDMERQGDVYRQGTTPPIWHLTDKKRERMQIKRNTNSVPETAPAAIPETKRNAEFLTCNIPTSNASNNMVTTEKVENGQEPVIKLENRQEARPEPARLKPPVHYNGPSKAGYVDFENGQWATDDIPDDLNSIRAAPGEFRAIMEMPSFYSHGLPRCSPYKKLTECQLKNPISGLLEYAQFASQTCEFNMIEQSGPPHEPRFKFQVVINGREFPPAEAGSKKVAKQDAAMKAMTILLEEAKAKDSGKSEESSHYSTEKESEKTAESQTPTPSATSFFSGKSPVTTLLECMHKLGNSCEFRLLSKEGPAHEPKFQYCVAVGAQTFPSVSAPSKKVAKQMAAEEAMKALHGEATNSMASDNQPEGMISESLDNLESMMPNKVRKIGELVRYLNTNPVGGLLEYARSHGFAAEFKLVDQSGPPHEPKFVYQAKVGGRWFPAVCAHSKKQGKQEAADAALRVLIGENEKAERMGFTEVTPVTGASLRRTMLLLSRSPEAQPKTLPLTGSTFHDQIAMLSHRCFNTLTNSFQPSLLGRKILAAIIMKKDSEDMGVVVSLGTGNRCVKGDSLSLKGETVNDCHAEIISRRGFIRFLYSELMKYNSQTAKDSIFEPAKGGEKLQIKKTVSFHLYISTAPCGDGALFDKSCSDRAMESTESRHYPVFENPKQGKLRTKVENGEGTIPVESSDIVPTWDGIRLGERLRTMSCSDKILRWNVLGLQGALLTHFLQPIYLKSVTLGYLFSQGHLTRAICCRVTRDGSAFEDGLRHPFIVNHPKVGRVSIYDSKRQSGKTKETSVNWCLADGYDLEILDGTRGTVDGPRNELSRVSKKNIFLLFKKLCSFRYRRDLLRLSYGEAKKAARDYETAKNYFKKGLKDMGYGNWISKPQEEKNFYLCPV", "test": "in vitro editing assay with recombinant ADAR1p110 and dsRNA or DNA:RNA substrates", "type": "biochemical", "protocol": "FIG. 26A-FIG. 26B show determination of IC50 by in vitro editing assay. In vitro editing assay using purified ADAR1p110 protein and two different substrates, matched (left) and mismatched (right) dsRNAs, was conducted in the presence of varying concentrations of compound #1 (FIG. 26A) or #13 (FIG. 26B) in order to estimate IC50 values for these compounds. In vitro editing was carried out using HAT-ADAR1p110 or HAT-ADAR2 recombinant protein (10 nM) and two different dsRNA substrates carrying a part of the CDK13 gene sequence (5 nM) at 37° C. for 2 hrs as described previously (12). Compounds were dissolved in 100% DMSO. The in vitro assay contained DMSO at final concentration of 16%.\nThe in vitro editing reaction mixture, containing 5 nM of telomere RNA:RNA duplex substrates and 75 nM of HAT-ADAR1p110-WT, FLAG-ADAR1p110-WT, or HA-ADAR1p110-EAA protein, was incubated at 37° C. for 2 h in in vitro editing buffer I (20 mM HEPES-KOH pH 7.5, 100 mM NaCl, 0.01% NP-40, 5% glycerol, 1 mM DTT). For editing of RNA:DNA hybrid substrates, in vitro editing buffer II (20 mM HEPES-KOH pH 7.5, 20 mM NaCl, 0.01% NP-40, 5% glycerol, 1 mM DTT) was used. Edited RNA or DNA strands were purified using Dynabeads MyOne Streptavidin C1 (Thermo Fisher Scientific). To remove opposite RNA or DNA strands, rNase H (NEB) or TURBO dNase (Thermo Fisher Scientific) was used, respectively. For sequencing of edited substrates, reverse transcription-PCR was carried out for RNA strands, while PCR was carried out for DNA strands. RT reactions were carried out using SuperScript III Reverse Transcriptase (Thermo Fisher Scientific), and PCR reactions were performed using Platinum Taq DNA polymerase (Thermo Fisher Scientific). PCR products were sequenced using a specific sequencing primer, and the ratio of A and G peaks in the chromatograms were analyzed by CodonCode Aligner (CodonCode Corporation).\nThe 54 compounds identified in the high-throughput screen were further tested in the in vitro editing assay described in Examples 1 and 2. The in vitro editing reaction mixture, containing 5 nM of telomere RNA:RNA duplex substrates and 75 nM of HAT-ADAR1p110-WT, FLAG-ADAR1p110-WT, or HA-ADAR1p110-EAA protein, was incubated at 37° C. for 2 h in in vitro editing buffer I (20 mM HEPES-KOH pH 7.5, 100 mM NaCl, 0.01% NP-40, 5% glycerol, 1 mM DTT) with 10 microM test compound. For editing of RNA:DNA hybrid substrates, in vitro editing buffer II (20 mM HEPES-KOH pH 7.5, 20 mM NaCl, 0.01% NP-40, 5% glycerol, 1 mM DTT) was used. Edited RNA or DNA strands were purified using Dynabeads MyOne Streptavidin C1 (Thermo Fisher Scientific). To remove opposite RNA or DNA strands, Rnase H (NEB) or TuRBO Dnase (Thermo Fisher Scientific) was used, respectively. For sequencing of edited substrates, reverse transcription-PCR was carried out for RNA strands, while PCR was carried out for DNA strands. RT reactions were carried out using SuperScript III Reverse Transcriptase (Thermo Fisher Scientific), and PCR reactions were performed using Platinum Taq DNA polymerase (Thermo Fisher Scientific). PCR products were sequenced using a specific sequencing primer, and the ratio of A and G peaks in the chromatograms were analyzed by CodonCode Aligner (CodonCode Corporation)."}, "ADAR1p110-WT": {"biological_target": "T2, ADAR1p110-WT (Homo sapiens, UniProt P55265)", "T2 sequence (P55265 1-931 isoform P55265-5)": "T1 sequence (P55265 1-931 isoform P55265-5)", "test": "surface plasmon resonance (Biacore T200), ADAR1p110-WT", "type": "binding", "settings": "SPR", "description": "We synthesized 2 additional analogs of Compound #13 for preliminary structure activity relationships (SAR), namely, #13-Analog 1 and #13-Analog 2 (Table 3). Compound #13-Analog 1 lacks the 4-cyano moiety and #13-Analog 2 shifts the cyano to the 2-position of the phenyl ring. […] We hypothesized that the cyano-phenyl moiety will coordinate with the zinc atom in the active site when bound to ADAR1. We evaluated the ability of Compound #13 to bind to ADAR1 using surface plasmon resonance (SPR) on the Biacore T200. […] We modeled Compound #13 into the ADAR2 active site (56)."}, "[1]": {"test": "water solubility by LC-MS/MS", "type": "physicochemical", "settings": "water with 1% DMSO, kinetic from dmso stock, tested at 100 μM in 1% DMSO"}},
  "note": "Like-named read-outs stand apart in the source and are kept apart here.",
  "data": [
    {"compound": "N#Cc1ccc(NC(=O)c2sc3ccccc3c2Cl)cc1", "note": "[Compound #13, 3-chloro-N-(4-cyanophenyl)-1-benzothiophene-2-carboxamide]", "values": [
      {"measurement": "IC50", "setting": "ADAR1p110; DNA:RNA mismatched hybrid substrate, read-out: IC50 estimated by in vitro editing assay, DNA:mmRNA", "result": "30 to 100", "unit": "µM"},
      {"measurement": "IC50", "setting": "ADAR1p110; dsRNAs (matched, mismatched) and DNA:RNA hybrids, read-out: IC50 values for ADAR1p110", "result": "7 to 40", "unit": "µM"},
      {"measurement": "inhibition of editing of A:U matched dsRNA", "setting": "ADAR1p110; matched dsRNA substrate, FIG. 25C, 10 microM test compound", "result": "preferentially inhibited matched adenosines"},
      {"measurement": "IC50", "setting": "ADAR1p110; matched dsRNA substrate, read-out: IC50 estimated by in vitro editing assay, RNA:RNA", "result": 3, "unit": "µM"},
      {"measurement": "IC50", "setting": "ADAR1p110; mismatched dsRNA substrate, adenosine position 2, read-out: IC50 estimated by in vitro editing assay, RNA:mmRNA, Position 2", "result": 21, "unit": "µM"},
      {"measurement": "IC50", "setting": "ADAR1p110; mismatched dsRNA substrate, adenosine position 5, read-out: IC50 estimated by in vitro editing assay, RNA:mmRNA, Position 5", "result": 8.2, "unit": "µM"},
      {"measurement": "IC50", "setting": "ADAR1p110; mismatched dsRNA substrate, adenosine position 6, read-out: IC50 estimated by in vitro editing assay, RNA:mmRNA, Position 6", "result": 3.8, "unit": "µM"},
      {"measurement": "binding to ADAR1p110 wildtype (qualitative)", "setting": "ADAR1p110-WT", "result": "binds"},
      {"measurement": "Kd", "setting": "ADAR1p110-WT; read-out: Kd, binding to ADAR1p110-WT", "result": "~26", "unit": "µM"},
      {"measurement": "solubility", "setting": "[1]", "result": 0.59, "unit": "µM"}
    ]}
  ]
}
